{"source": "PubChem BioAssay AID190", "about": "(DTP/NCI, 2004)", "tested_on": "AKR/Lw mice, AKR lymphoma ip, median survival T/C", "experiment": "NCI In Vivo Anticancer Drug Screen. Data for tumor model Lymphoma AKR (Transplanted) (intraperitoneal) in AKR/Lw mice", "settings": "endpoint: median survival time, higher = longer survival", "experimental": "The antitumor activity of compounds was measured in mice bearing transplantable tumors. Survival or tumor size were measured and the results are expressed as the measurement made in the treated group (T) divided by the measurement made in the vehicle treated control group (C). The tumor model used in this assay is Lymphoma AKR (Transplanted) (intraperitoneal) in AKR/Lw mice", "note": "Several values for one entry are separate records, joined by “and”; a condition that tells them apart may be missing. Equal values may be shown once. Inconclusive results and toxic doses are left out."}
{"smiles": "O=P1(N(CCCl)CCCl)NCCCO1", "note": "(stereo not drawn)", "values": [{"measurement": "T/C", "setting": "dose: 0.5 mg/kg/injection, schedule: Q01DX015 (ip), vehicle: saline", "value": "117 % of control"}, {"measurement": "T/C", "setting": "dose: 1.0 mg/kg/injection, schedule: Q01DX015 (ip), vehicle: saline", "value": "108 % of control"}, {"measurement": "T/C", "setting": "dose: 1.5 mg/kg/injection, schedule: Q04DX003 (ip), vehicle: saline", "value": "91 % of control"}, {"measurement": "T/C", "setting": "dose: 2.0 mg/kg/injection, schedule: Q01DX015 (ip), vehicle: saline", "value": "108 % of control"}, {"measurement": "T/C", "setting": "dose: 2.0 mg/kg/injection, schedule: Q03HX032 (ip), vehicle: saline", "value": "119 % of control"}, {"measurement": "T/C", "setting": "dose: 3.0 mg/kg/injection, schedule: Q04DX003 (ip), vehicle: saline", "value": "93 % of control"}, {"measurement": "T/C", "setting": "dose: 3.1 mg/kg/injection, schedule: Q01DX009 (ip), vehicle: saline", "value": "100 % of control and 102 % of control"}, {"measurement": "T/C", "setting": "dose: 4.0 mg/kg/injection, schedule: Q03HX032 (ip), vehicle: saline", "value": "117 % of control"}, {"measurement": "T/C", "setting": "dose: 6.0 mg/kg/injection, schedule: Q01DX009 (ip), vehicle: saline", "value": "97 % of control"}, {"measurement": "T/C", "setting": "dose: 6.0 mg/kg/injection, schedule: Q04DX003 (ip), vehicle: saline", "value": "93 % of control"}, {"measurement": "T/C", "setting": "dose: 6.2 mg/kg/injection, schedule: Q04DX003 (ip), vehicle: saline", "value": "97 % of control"}, {"measurement": "T/C", "setting": "dose: 6.25 mg/kg/injection, schedule: Q07DX005 (ip), vehicle: saline", "value": "112 % of control"}, {"measurement": "T/C", "setting": "dose: 7.0 mg/kg/injection, schedule: Q01DX015 (ip), vehicle: saline", "value": "88 % of control"}, {"measurement": "T/C", "setting": "dose: 8.0 mg/kg/injection, schedule: Q03HX032 (ip), vehicle: saline", "value": "112 % of control"}, {"measurement": "T/C", "setting": "dose: 10.0 mg/kg/injection, schedule: Q01DX009 (ip), vehicle: saline", "value": "110 % of control and 118 % of control"}, {"measurement": "T/C", "setting": "dose: 11.0 mg/kg/injection, schedule: Q01DX015 (ip), vehicle: saline", "value": "100 % of control"}, {"measurement": "T/C", "setting": "dose: 12.0 mg/kg/injection, schedule: Q04DX003 (ip), vehicle: saline", "value": "97 % of control and 105 % of control"}, {"measurement": "T/C", "setting": "dose: 12.5 mg/kg/injection, schedule: Q01DX001 (ip), vehicle: saline", "value": "92 % of control and 104 % of control and 116 % of control"}, {"measurement": "T/C", "setting": "dose: 20.0 mg/kg/injection, schedule: Q07DX004 (ip), vehicle: saline", "value": "120 % of control"}, {"measurement": "T/C", "setting": "dose: 24.0 mg/kg/injection, schedule: Q01DX015 (ip), vehicle: saline", "value": "100 % of control and 117 % of control"}, {"measurement": "T/C", "setting": "dose: 25.0 mg/kg/injection, schedule: Q07DX003 (ip), vehicle: saline", "value": "152 % of control"}, {"measurement": "T/C", "setting": "dose: 25.0 mg/kg/injection, schedule: Q10DX002 (ip), vehicle: saline", "value": "152 % of control"}, {"measurement": "T/C", "setting": "dose: 25.0 mg/kg/injection, schedule: Q10DX004 (ip), vehicle: saline", "value": "119 % of control"}, {"measurement": "T/C", "setting": "dose: 25.0 mg/kg/injection, schedule: Q14DX003 (ip), vehicle: saline", "value": "178 % of control"}, {"measurement": "T/C", "setting": "dose: 25.0 mg/kg/injection, schedule: Q14DX004 (ip), vehicle: saline", "value": "103 % of control"}, {"measurement": "T/C", "setting": "dose: 33.0 mg/kg/injection, schedule: Q09DX002 (ip), vehicle: saline", "value": "188 % of control"}, {"measurement": "T/C", "setting": "dose: 37.5 mg/kg/injection, schedule: Q12DX002 (ip), vehicle: saline", "value": "172 % of control"}, {"measurement": "T/C", "setting": "dose: 44.0 mg/kg/injection, schedule: Q07DX004 (ip), vehicle: saline", "value": "227 % of control"}, {"measurement": "T/C", "setting": "dose: 50.0 mg/kg/injection, schedule: Q09DX002 (ip), vehicle: saline", "value": "160 % of control and 234 % of control (2×)"}, {"measurement": "T/C", "setting": "dose: 50.0 mg/kg/injection, schedule: Q10DX002 (ip), vehicle: saline", "value": "186 % of control"}, {"measurement": "T/C", "setting": "dose: 50.0 mg/kg/injection, schedule: Q12DX002 (ip), vehicle: saline", "value": "164 % of control"}, {"measurement": "T/C", "setting": "dose: 50.0 mg/kg/injection, schedule: Q14DX003 (ip), vehicle: saline", "value": "177 % of control"}, {"measurement": "T/C", "setting": "dose: 50.0 mg/kg/injection, schedule: Q14DX004 (ip), vehicle: saline", "value": "173 % of control"}, {"measurement": "T/C", "setting": "dose: 50.0 mg/kg/injection, schedule: Q## X002 (ip), vehicle: saline", "value": "164 % of control"}, {"measurement": "T/C", "setting": "dose: 65.5 mg/kg/injection, schedule: Q04DX003 (ip), vehicle: saline", "value": "236 % of control"}, {"measurement": "T/C", "setting": "dose: 67.0 mg/kg/injection, schedule: Q07DX004 (ip), vehicle: saline", "value": "232 % of control"}, {"measurement": "T/C", "setting": "dose: 67.0 mg/kg/injection, schedule: Q09DX002 (ip), vehicle: saline", "value": "234 % of control"}, {"measurement": "T/C", "setting": "dose: 75.0 mg/kg/injection, schedule: Q01DX001 (ip), vehicle: saline", "value": "180 % of control and 226 % of control"}, {"measurement": "T/C", "setting": "dose: 75.0 mg/kg/injection, schedule: Q01DX001 (ip), vehicle: water", "value": "153 % of control"}, {"measurement": "T/C", "setting": "dose: 75.0 mg/kg/injection, schedule: Q04DX003 (ip), vehicle: saline", "value": "180 % of control"}, {"measurement": "T/C", "setting": "dose: 75.0 mg/kg/injection, schedule: Q07DX003 (ip), vehicle: saline", "value": "200 % of control and 210 % of control and 231 % of control"}, {"measurement": "T/C", "setting": "dose: 75.0 mg/kg/injection, schedule: Q07DX005 (ip), vehicle: saline", "value": "181 % of control"}, {"measurement": "T/C", "setting": "dose: 75.0 mg/kg/injection, schedule: Q12DX002 (ip), vehicle: saline", "value": "226 % of control"}, {"measurement": "T/C", "setting": "dose: 100.0 mg/kg/injection, schedule: Q01DX001 (ip), vehicle: saline with Tween-80", "value": "154 % of control"}, {"measurement": "T/C", "setting": "dose: 100.0 mg/kg/injection, schedule: Q01DX009 (ip), vehicle: saline", "value": "112 % of control"}, {"measurement": "T/C", "setting": "dose: 100.0 mg/kg/injection, schedule: Q07DX004 (ip), vehicle: saline", "value": "200 % of control"}, {"measurement": "T/C", "setting": "dose: 100.0 mg/kg/injection, schedule: Q07DX005 (ip), vehicle: saline", "value": "95 % of control"}, {"measurement": "T/C", "setting": "dose: 100.0 mg/kg/injection, schedule: Q09DX002 (ip), vehicle: saline", "value": "117 % of control and 228 % of control (2×)"}, {"measurement": "T/C", "setting": "dose: 100.0 mg/kg/injection, schedule: Q10DX004 (ip), vehicle: saline", "value": "175 % of control"}, {"measurement": "T/C", "setting": "dose: 100.0 mg/kg/injection, schedule: Q14DX003 (ip), vehicle: saline", "value": "235 % of control"}, {"measurement": "T/C", "setting": "dose: 125.0 mg/kg/injection, schedule: Q07DX003 (ip), vehicle: saline", "value": "105 % of control and 110 % of control"}, {"measurement": "T/C", "setting": "dose: 150.0 mg/kg/injection, schedule: Q01DX001 (ip), vehicle: saline with Tween-80", "value": "179 % of control"}, {"measurement": "T/C", "setting": "dose: 150.0 mg/kg/injection, schedule: Q01DX001 (ip), vehicle: water", "value": "171 % of control and 196 % of control"}, {"measurement": "T/C", "setting": "dose: 150.0 mg/kg/injection, schedule: Q07DX005 (ip), vehicle: saline", "value": "95 % of control"}, {"measurement": "T/C", "setting": "dose: 150.0 mg/kg/injection, schedule: Q10DX004 (ip), vehicle: saline", "value": "209 % of control"}, {"measurement": "T/C", "setting": "dose: 200.0 mg/kg/injection, schedule: Q01DX009 (ip), vehicle: saline", "value": "100 % of control"}, {"measurement": "T/C", "setting": "dose: 200.0 mg/kg/injection, schedule: Q09DX002 (ip), vehicle: saline", "value": "103 % of control"}, {"measurement": "T/C", "setting": "dose: 200.0 mg/kg/injection, schedule: Q10DX002 (ip), vehicle: saline", "value": "114 % of control"}, {"measurement": "T/C", "setting": "dose: 300.0 mg/kg/injection, schedule: Q01DX001 (ip), vehicle: water", "value": "171 % of control and 188 % of control"}, {"measurement": "T/C", "setting": "dose: 500.0 mg/kg/injection, schedule: Q01DX001 (ip), vehicle: saline", "value": "100 % of control"}]}
{"smiles": "COc1ccc(COC(=O)CN2C(=O)c3ccccc3C2=O)cc1", "values": [{"measurement": "T/C", "setting": "dose: 100.0 mg/kg/injection, schedule: Q01DX001 (ip), vehicle: Klucel (hydroxypropylcellulose) (HPC)", "value": "97 % of control"}, {"measurement": "T/C", "setting": "dose: 200.0 mg/kg/injection, schedule: Q01DX001 (ip), vehicle: Klucel (hydroxypropylcellulose) (HPC)", "value": "100 % of control"}, {"measurement": "T/C", "setting": "dose: 400.0 mg/kg/injection, schedule: Q01DX001 (ip), vehicle: Klucel (hydroxypropylcellulose) (HPC)", "value": "113 % of control"}]}
